Source: patent US10946024B2, “Method for treating cancer” (Epizyme, Inc., priority 2014, dated 2021)

Legend:
[1] = system: ATF3, EGR1 expression in SW982 cells; test: Gene expression changes in vitro by RT-PCR, normalized to GAPDH; assay type: cell-based, human; details: SW982 in vitro culture
Protocol: HS-SY-II and SW982 cells were treated with EZH2 inhibitors (Compound A or EPZ-011989) and collected at the indicated time points. Total RNA isolation and cDNA synthesis were performed using the TaqMan Gene Expression Cells-to-CT kit (4399002, Life technologies) according to the manufacturer's protocol. ATF3, EGR1, CDKN2A and GAPDH expression were analyzed by using the TaqMan Gene Expression Assays (Life technologies, 4331182) and the TaqMan Probes (Hs00231069_m1, Hs00152928_m1, Hs00233365_m1, and Hs99999905_m1, respectively).

[2] = system: H3K27me3 in HS-SY-II xenograft; test: H3K27me3 by ELISA in HS-SY-II xenograft tumors harvested on Day 28 (second study); assay type: in vivo, mice; details: Day 28, 3 h after the last dose
Protocol: FIGS. 10A to 10C show mean in vivo tumor volumes for athymic nude mice bearing HS-SY-II xenografts. In a first study, mice were dosed with either vehicle (oral for 28 days or iv on Day 1 and Day 22), Compound A (oral: 125 mg/kg, 250 mg/kg, or 500 mg/kg for 28 days), or Doxorubicin (iv: 10 mg/kg, Day 1 and Day 22); tumor volumes were measured twice a week (FIGS. 10A and 10B). In a second study, mice were dosed with either vehicle (oral for 28 days), Compound A (oral: 250 mg/kg or 500 mg/kg for 28 days), Doxorubicin (iv: 10 mg/kg on Day 1 and Day 22), or a combination of Doxorubicin (iv: 10 mg/kg on Day 1 and Day 22) and Compound A (oral: 250 mg/kg for 28 days) (FIG. 10C). Tumors from animals of the second study were harvested on Day 28 (3 h after the last dose) and subjected to H3K27me3 analysis by ELISA (FIG. 10D) or IHC for the proliferation marker Ki67 (FIG. 10E).
For FIG. 10D, tumors were snap-frozen in liquid nitrogen. […] Histones were quantified using the BCA protein assay (23225, Pierce). […] Subsequently, the developed colors in the wells were measured using a plate spectrophotometer (SpectraMax 250, Molecular Devices) at 450 nm (reference wavelength 650 nm). The H3K27me3 levels were adjusted to total histone H3, and expressed as fold changes to vehicle control. […] Histones were extracted and quantified, and the levels of H3K27me3 were analyzed as described above. […]

[3] = system: CDKN2A expression in HS-SY-II xenograft; test: Gene expression changes in vivo in HS-SY-II xenograft by RT-PCR; set-up: species or system mice; details: 500 mg/kg oral twice daily for 7 days
Protocol: Tumor samples were collected at approximately 3 hours after the last dose from mice used in analysis for PK values and PD alterations.

## CCN(c1cc(-c2ccc(CN3CCOCC3)cc2)cc(C(=O)NCc2c(C)cc(C)[nH]c2=O)c1C)C1CCOCC1 [Compound A]
[1]
  ATF3 and EGR1 expression: not in SW982
[2]
  H3K27me3 levels in tumors: significantly reduced
[3]
  CDKN2A expression in tumor: significantly upregulated
